Experimental data: US8258159B2, “Inhibitors of the α2β1/GPIa-IIa integrin” (The Trustees Of The University Of Pennsylvania, priority 2005, dated 2012)
Where two headings read alike, the source gives them in different places.

Experiments:
Assay type in all cases: cell-based
[1] = molecular target: T1, α2β1 integrin (Homo sapiens, UniProt P05556+P17301); test: Platelet adhesion assay (human platelet adhesion to type I collagen)
T1 construct: endogenous in cells; host or cells: gel-filtered human platelets of a single donor
T1 sequence (P17301 30-1181): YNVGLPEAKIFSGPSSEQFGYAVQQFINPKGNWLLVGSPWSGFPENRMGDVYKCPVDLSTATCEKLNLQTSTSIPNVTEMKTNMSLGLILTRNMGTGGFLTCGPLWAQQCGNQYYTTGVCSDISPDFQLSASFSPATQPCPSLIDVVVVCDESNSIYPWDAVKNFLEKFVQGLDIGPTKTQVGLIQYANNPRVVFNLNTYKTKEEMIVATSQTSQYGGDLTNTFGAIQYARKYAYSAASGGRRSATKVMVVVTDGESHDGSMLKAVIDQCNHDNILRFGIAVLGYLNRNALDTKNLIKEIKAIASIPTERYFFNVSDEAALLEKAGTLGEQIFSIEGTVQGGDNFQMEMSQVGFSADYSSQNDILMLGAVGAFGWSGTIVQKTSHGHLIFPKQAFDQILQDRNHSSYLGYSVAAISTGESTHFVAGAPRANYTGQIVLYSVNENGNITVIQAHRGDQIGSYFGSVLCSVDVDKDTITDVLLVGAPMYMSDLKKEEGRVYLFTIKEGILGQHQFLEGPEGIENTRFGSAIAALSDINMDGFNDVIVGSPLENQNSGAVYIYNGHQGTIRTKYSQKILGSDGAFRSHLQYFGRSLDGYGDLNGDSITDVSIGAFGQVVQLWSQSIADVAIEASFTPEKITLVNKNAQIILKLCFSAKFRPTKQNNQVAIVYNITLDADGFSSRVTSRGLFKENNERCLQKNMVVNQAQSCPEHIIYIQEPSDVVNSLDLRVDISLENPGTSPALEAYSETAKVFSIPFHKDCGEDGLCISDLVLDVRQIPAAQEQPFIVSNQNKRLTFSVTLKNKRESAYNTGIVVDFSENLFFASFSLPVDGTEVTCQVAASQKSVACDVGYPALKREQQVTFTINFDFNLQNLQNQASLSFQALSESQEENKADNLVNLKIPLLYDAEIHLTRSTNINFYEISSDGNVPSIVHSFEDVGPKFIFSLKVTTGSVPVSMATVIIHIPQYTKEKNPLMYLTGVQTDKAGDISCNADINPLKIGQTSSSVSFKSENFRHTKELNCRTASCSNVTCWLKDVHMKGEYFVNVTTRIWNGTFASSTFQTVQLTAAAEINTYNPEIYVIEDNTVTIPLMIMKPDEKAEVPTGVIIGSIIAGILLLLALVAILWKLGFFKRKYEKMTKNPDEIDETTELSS
T1 sequence (P05556 21-798): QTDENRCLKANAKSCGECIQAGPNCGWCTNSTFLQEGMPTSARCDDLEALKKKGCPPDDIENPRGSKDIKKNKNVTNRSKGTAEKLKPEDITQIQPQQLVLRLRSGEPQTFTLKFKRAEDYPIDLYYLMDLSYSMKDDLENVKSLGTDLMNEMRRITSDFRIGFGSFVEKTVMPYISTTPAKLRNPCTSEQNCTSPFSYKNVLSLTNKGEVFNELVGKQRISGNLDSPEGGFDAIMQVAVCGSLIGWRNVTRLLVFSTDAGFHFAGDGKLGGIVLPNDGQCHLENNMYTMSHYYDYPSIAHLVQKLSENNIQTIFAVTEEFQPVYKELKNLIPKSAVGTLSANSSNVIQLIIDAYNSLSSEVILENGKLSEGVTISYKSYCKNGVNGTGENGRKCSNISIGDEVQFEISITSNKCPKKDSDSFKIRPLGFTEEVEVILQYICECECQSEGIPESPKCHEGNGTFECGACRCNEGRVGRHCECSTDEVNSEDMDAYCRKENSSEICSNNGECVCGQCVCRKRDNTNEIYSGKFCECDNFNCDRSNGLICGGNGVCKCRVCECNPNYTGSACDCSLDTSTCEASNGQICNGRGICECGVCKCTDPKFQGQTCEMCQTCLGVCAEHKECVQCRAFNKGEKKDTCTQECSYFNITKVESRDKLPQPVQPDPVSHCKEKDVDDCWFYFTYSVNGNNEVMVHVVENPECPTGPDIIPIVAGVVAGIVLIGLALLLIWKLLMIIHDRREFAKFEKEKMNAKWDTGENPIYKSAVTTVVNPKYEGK
Procedure: The inhibitory strength of the compounds of the present disclosure was analyzed as against platelet adhesion to type I collagen. Ninety-six well flat bottom microtiter plates (Immulon 2, Dynatech Laboratories, Chantilly, Va.) were coated with collagen, purified human fibrinogen, or bovine serum albumin, each dissolved in 50 mM NaHCO3 buffer, pH 8.0, containing 150 mM NaCl as previously described. See Bennett J S, Chan C, Vilaire G, Mousa S A, DeGrado W F. Agonist-Activated αvβ3 on Platelets and Lymphocytes Binds to the Matrix Protein Osteopontin. J Biol Chem. 272, 8137-814) (1997). Unoccupied protein binding sites on the wells were blocked with 5 mg/ml bovine serum albumin dissolved in the same buffer. Human platelets were isolated from blood anticoagulated with 0.1 volume 3.8% sodium citrate by gel-filtration using a 4 mM HEPES buffer, pH 7.4, containing 135 mM NaCl, 2.7 mM KCl, 5.6 mM glucose, 3.3 mM NaH2PO4, 0.35 mg/ml bovine serum albumin and various concentrations of CaCl2 or MgCl2 according to the experiment. One hundred μl aliquots of the gel-filtered platelet suspension containing 1-2×10^8 platelets were added to the protein-coated wells in the absence or presence of a platelet agonist. Following an incubation for 30 min at 37° C. without agitation, the plates were washed 4 times with the Tris-buffered NaCl, containing 2 mM MgCl2, pH 7.4, and the number of adherent platelets measured using the colorimetric assay reported by Bellavite P, Andrioli G, Guzzo P, et al. A colorimetric method for the measurement of platelet adhesion in microtiter plates. Anal Biochem. 216, 444-450 (1994). Briefly, 150 μl of a 0.1 M citrate buffer, pH 5.4, containing 5 mM p-nitrophenyl phosphate and 0.1% Triton X-100 was added to the wells after washing. After an incubation for 60 min at room temperature in the absence of ambient light, color was developed by the addition of 100 μl of 2N NaOH and, using EL800 Universal Microplate Reader (Bio-Tek Instruments, Inc., Winooski, Vt.), read in microtiter plate reader at 405 nm.
The potencies of the compounds of the present disclosure were determined by testing the ability of a range of concentrations of each compound to inhibit human platelet adhesion to soluble collagen under static conditions. Owing to the fact that soluble collagen is a specific ligand for α2β1 integrin, this is an accepted method of assessing α2β1 inhibition on platelets.
IC50 values were determined by using the platelets of a single donor. In cases where multiple assays were performed, the reported results reflect the average IC50 value derived from the separate assays.

[2] = molecular target: T2, α2β1 (Homo sapiens, UniProt P05556+P17301); test: Cell adhesion assay to assess specificity: α2-transfected K562 cells on collagen I
T2 construct: Marcinkiewicz (Temple University, Philadelphia, Pa.); host or cells: K562
T2 sequence (P17301 30-1181): as the sequence (P17301 30-1181) above
T2 sequence (P05556 21-798): as the sequence (P05556 21-798) above
Procedure: (§1) The ligands (3 μg/ml of collagen IV for […] or 3 μg/ml of collagen I for α2β1) for the test designed to assess the specificity of representative embodiments of the instant compounds for the α2β1 integrin were immobilized on 96-well flat microtiter plates (100 μl for each well) in PBS buffer solution overnight at 4° C. In the case of VCAM (3 μg/ml, for α4β1) and fibronectin (10 μg/ml, for α5β1), 20 mM acetic acid was used instead of PBS buffer solution. As those skilled in the art will recognize, VCAM is a known endothelial ligand for α4β1/VLA-4, and fibronectin is a known ligand for […]. In the case of α1β1 and α2β1, blocking was performed with 1% BSA in HBSS buffer solution containing Mg^2+ (but without Ca^2+) for 1 hour. In the case of α4β1 and α5β1, 1% BSA in HyQ HBSS buffer solution containing Ca^2+ and Mg^2+ was used. […] After centrifugation and washing with buffer solution containing 1% BSA, cells were re-suspended in same buffer solution (1×10^6 cells/ml) and incubated in the presence of a different concentration of inhibitors at room temperature for 15 minutes. Cells were added to the wells (100 μl/well) and incubated at 37° C. for 30 minutes. Unbound cells were washed out and bound cells were lysed by the addition of 0.5% Triton X-100.
(§2) The K562 cells expressing α5β1 integrin, Jurkat cells expressing α4β1, and K562 cells transfected with α1 and α2 integrins were provided by Dr. C. Marcinkiewicz (Temple University, Philadelphia, Pa.).
(§3) Plates were read using a Cytofluor 2350 fluorescence plate reader (Millipore, Bedford, Mass.) with a 485 nm (excitation) and 530 nm (emission).

[3] = molecular target: T3, α1β1 (Homo sapiens, UniProt P05556+P56199); test: Cell adhesion assay to assess specificity: α1-transfected K562 cells on collagen IV; details: read-out: % inhibition at 3 μM, α1β1
T3 construct: Marcinkiewicz (Temple University, Philadelphia, Pa.); host or cells: K562
T3 sequence (P56199 29-1179): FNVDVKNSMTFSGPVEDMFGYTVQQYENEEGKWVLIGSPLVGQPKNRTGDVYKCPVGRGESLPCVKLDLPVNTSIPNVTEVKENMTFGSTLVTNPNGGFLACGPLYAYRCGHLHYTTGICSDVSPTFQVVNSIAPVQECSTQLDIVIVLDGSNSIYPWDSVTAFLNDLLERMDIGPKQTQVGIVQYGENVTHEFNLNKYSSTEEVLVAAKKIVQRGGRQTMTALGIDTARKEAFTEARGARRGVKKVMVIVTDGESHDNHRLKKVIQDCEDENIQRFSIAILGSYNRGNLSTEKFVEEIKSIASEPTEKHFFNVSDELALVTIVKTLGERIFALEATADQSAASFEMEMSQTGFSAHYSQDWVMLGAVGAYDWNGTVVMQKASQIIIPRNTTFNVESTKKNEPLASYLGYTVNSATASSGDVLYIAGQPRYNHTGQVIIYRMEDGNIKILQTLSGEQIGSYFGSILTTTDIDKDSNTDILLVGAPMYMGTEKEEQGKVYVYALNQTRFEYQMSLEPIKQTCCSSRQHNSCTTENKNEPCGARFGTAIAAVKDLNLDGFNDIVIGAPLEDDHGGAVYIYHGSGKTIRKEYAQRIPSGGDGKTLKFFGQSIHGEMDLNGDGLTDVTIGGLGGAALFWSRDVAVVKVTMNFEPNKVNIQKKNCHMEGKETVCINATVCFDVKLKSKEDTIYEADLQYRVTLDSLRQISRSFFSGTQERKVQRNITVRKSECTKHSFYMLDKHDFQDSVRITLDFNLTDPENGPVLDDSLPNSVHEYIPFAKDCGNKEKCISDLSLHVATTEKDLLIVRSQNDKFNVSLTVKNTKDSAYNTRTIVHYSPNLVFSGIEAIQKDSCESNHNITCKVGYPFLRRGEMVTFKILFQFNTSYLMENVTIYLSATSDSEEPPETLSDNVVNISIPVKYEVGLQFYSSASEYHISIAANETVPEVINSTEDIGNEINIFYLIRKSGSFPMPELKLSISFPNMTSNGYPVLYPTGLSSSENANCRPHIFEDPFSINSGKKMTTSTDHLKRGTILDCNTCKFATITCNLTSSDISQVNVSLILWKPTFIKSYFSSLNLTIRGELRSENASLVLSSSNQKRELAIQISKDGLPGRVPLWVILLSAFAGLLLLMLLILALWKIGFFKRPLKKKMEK
T3 sequence (P05556 21-798): as the sequence (P05556 21-798) above
Procedure: as §1, §2, §3

[4] = molecular target: T4, α4β1 (Homo sapiens, UniProt P05556+P13612); test: Cell adhesion assay to assess specificity: Jurkat cells on VCAM
T4 construct: Jurkat cells expressing α4β1; Marcinkiewicz (Temple University, Philadelphia, Pa.); host or cells: Jurkat
T4 sequence (P13612 34-1032): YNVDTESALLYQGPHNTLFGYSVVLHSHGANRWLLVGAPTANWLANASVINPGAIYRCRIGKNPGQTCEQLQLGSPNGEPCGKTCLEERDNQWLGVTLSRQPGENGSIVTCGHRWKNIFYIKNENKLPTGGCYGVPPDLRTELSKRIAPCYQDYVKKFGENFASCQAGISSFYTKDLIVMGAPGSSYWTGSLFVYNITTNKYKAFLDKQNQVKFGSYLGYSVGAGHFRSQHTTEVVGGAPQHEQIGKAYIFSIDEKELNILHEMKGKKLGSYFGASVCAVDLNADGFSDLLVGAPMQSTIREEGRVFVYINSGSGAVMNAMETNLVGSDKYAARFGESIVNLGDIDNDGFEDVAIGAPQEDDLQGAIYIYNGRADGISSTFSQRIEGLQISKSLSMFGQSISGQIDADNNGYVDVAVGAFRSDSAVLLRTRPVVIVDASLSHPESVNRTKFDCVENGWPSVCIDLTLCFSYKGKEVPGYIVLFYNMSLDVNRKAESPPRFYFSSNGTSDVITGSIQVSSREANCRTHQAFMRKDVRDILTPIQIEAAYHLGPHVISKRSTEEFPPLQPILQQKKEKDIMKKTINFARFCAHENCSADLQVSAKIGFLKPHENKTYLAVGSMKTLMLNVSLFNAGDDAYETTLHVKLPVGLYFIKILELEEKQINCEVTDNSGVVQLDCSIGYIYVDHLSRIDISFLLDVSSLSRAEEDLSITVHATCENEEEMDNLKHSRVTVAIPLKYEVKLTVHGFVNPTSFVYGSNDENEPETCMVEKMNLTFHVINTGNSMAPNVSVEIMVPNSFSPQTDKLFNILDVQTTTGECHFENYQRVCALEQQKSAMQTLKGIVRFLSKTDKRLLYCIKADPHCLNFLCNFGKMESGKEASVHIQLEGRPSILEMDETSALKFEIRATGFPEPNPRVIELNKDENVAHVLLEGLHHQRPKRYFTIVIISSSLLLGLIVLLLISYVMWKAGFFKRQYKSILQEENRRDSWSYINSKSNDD
T4 sequence (P05556 21-798): as the sequence (P05556 21-798) above
Procedure: as §1, §2, §3

[5] = human platelet adhesion to type I (soluble, monomeric) collagen, static conditions, single donor, read-out: IC50
[6] = platelets on collagen I, read-out: IC50 (nM), α2β1, Platelet, Collagen I

O=C(NCc1ccccc1)NC[C@H](NC(=O)[C@@H]1CCCN1S(=O)(=O)c1ccc2ccccc2c1)C(=O)O [Compound 29]
IC50 [1, 5]: 900 nM | IC50 [2]: 177 nM | inhibition at 3 µM [3]: 30% | IC50 [4]: 4330 nM

Nc1ccc(CNC(=O)NC[C@H](NC(=O)[C@@H]2CCCN2S(=O)(=O)c2ccccc2)C(=O)O)cc1 [Compound 30, 3-[3-(4-Amino-benzyl)-ureido]-2-[(1-benzenesulfonyl-pyrrolidine-2-carbonyl)-amino]-propionic acid]
IC50 [1, 5]: 23 nM | IC50 [1, 6]: 23 nM | IC50 [2]: 102 nM | inhibition at 3 µM [3]: 22% | IC50 [4]: 1970 nM

Cc1cc(C)cc(S(=O)(=O)N2CCC[C@H]2C(=O)N[C@@H](CNC(=O)NCc2ccccc2)C(=O)O)c1 [Compound 31, 3-(3-Benzyl-ureido)-2-{[1-(3,5-dimethyl-benzenesulfonyl)-pyrrolidine-2-carbonyl]-amino}-propionic acid]
IC50 [1, 5]: 29 nM | IC50 [1, 6]: 29 nM | IC50 [2]: 89 nM | inhibition at 3 µM [3]: 26% | IC50 [4]: 740 nM

CS(=O)(=O)c1ccc(S(=O)(=O)N2CCC[C@H]2C(=O)N[C@@H](CNC(=O)NCc2ccccc2)C(=O)O)cc1 [Compound 44, 3-(3-Benzyl-ureido)-2-{[1-(4-methanesulfonyl-benzenesulfonyl)-pyrrolidine-2-carbonyl]-amino}-propionic acid]
IC50 [1, 5]: 70 nM

CC(C)(C)NC(=O)NC[C@H](NC(=O)[C@@H]1CCCN1S(=O)(=O)c1ccccc1)C(=O)O [Compound 45, 2-[(1-Benzenesulfonyl-pyrrolidine-2-carbonyl)-amino]-3-(3-tert-butyl-ureido)-propionic acid]
IC50 [1, 5]: 185 nM

O=C(NCc1ccccc1)NC[C@H](NC(=O)[C@@H]1C[C@@H](OCc2ccccc2)CN1S(=O)(=O)c1ccccc1)C(=O)O [Compound 46, 2-[(1-Benzenesulfonyl-4-benzyloxy-pyrrolidine-2-carbonyl)-amino]-3-(3-benzyl-ureido)-propionic acid]
IC50 [1, 5]: 240 nM

O=C(NCc1ccccc1)NC[C@H](NC(=O)[C@@H]1C[C@@H](O)CN1S(=O)(=O)c1ccccc1)C(=O)O [Compound 47, 2-[(1-Benzenesulfonyl-4-hydroxy-pyrrolidine-2-carbonyl)-amino]-3-(3-benzyl-ureido)-propionic acid]
IC50 [1, 5]: 34 nM

O=C(NCc1ccccc1)NC[C@H](NC(=O)[C@@H]1CCCN1S(=O)(=O)c1cc(Cl)cc(Cl)c1)C(=O)O [Compound 48, 3-(3-Benzyl-ureido)-2-{[1-(3,5-dichloro-benzenesulfonyl)-pyrrolidine-2-carbonyl]-amino}-propionic acid]
IC50 [1, 5]: 17 nM | IC50 [1, 6]: 17 nM | IC50 [2]: 83 nM | inhibition at 3 µM [3]: 32% | IC50 [4]: 637 nM

O=C(NCc1ccccc1)NC[C@H](NC(=O)[C@@H]1CCCN1S(=O)(=O)c1cc(C(F)(F)F)cc(C(F)(F)F)c1)C(=O)O [Compound 49, 3-(3-Benzyl-ureido)-2-{[1-(3,5-bis-trifluoromethyl-benzenesulfonyl)-pyrrolidine-2-carbonyl]-amino}-propionic acid]
IC50 [1, 5]: 39 nM

O=C(NCc1ccccc1)NC[C@H](NC(=O)C1CCCCN1S(=O)(=O)c1ccccc1)C(=O)O (stereo partly shown) [Compound 51, 2-[(1-Benzenesulfonyl-piperidine-2-carbonyl)-amino]-3-(3-benzyl-ureido)-propionic acid]
IC50 [1, 5]: 56 nM
